Measured values: ChEMBL document CHEMBL1201862, “PubChem BioAssay data set” (2004)
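Protocol summary: plate cells (96-well), add compound at 5 concentrations, incubate 48 h, interpolate endpoints linearly. GI50 = concentration required for 50% inhibition of growth.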 Calls of active or inactive are those of the source. Rule as the data show it: active = GI50 up to about 1.1 µM and inactive = higher.

Key:
Assay in all cases: growth of human tumour cells (NCI), 48 h
[1] = test system: MDA-MB-435
[2] = test system: UACC-257
[3] = test system: HCT-15
[4] = test system: NCI-H460
[5] = test system: M14
[6] = test system: IGROV-1
[7] = test system: BT-549
[8] = test system: CAKI-1
[9] = test system: EKVX
[10] = test system: NCI-H226
[11] = test system: MDA-N
[12] = test system: K562
[13] = test system: OVCAR-5
[14] = test system: SK-MEL-5
[15] = test system: MDA-MB-231
[16] = test system: HOP-92
[17] = test system: NCI-H23
[18] = test system: Malme-3M
[19] = test system: DU-145
[20] = test system: HL-60
[21] = test system: COLO 205
[22] = test system: OVCAR-3
[23] = test system: PC-3
[24] = test system: OVCAR-8
[25] = test system: NCI/ADR-RES
[26] = test system: KM12
[27] = test system: A549
[28] = test system: SW-620
[29] = test system: MCF7
[30] = test system: 786-0
[31] = test system: OVCAR-4
[32] = test system: SK-MEL-2
[33] = test system: NCI-H522
[34] = test system: SNB-19
[35] = test system: TK-10
[36] = test system: T47D
[37] = test system: SN12C
[38] = test system: SK-MEL-28
[39] = test system: UO-31
[40] = test system: UACC-62
[41] = test system: U-251
[42] = test system: LOX IMVI
[43] = test system: Hs-578T
[44] = test system: A498
[45] = test system: SF-295
[46] = test system: RXF 393
[47] = test system: HT-29
[48] = test system: ACHN
[49] = test system: CCRF-CEM
[50] = test system: HCT-116
[51] = test system: HOP-62
[52] = test system: RPMI-8226
[53] = test system: SF-268
[54] = test system: MOLT-4
[55] = test system: SF-539
[56] = test system: HCC 2998
[57] = test system: SK-OV-3
[58] = test system: SNB-75
[59] = test system: SR

CCc1n[nH]c(=O)n1N=C(c1ccccc1)c1ccccc1
GI50 [1]: > 100 µM (inactive) | GI50 [2]: > 100 µM (inactive) | GI50 [3]: > 100 µM | GI50 [4]: > 100 µM (inactive) | GI50 [5]: > 100 µM (inactive) | GI50 [6]: > 100 µM (inactive) | GI50 [7]: > 100 µM (inactive) | GI50 [8]: > 100 µM (inactive) | GI50 [9]: 32 µM (inactive) | GI50 [10]: > 100 µM (inactive) | GI50 [11]: > 100 µM (inactive) | GI50 [12]: > 100 µM (inactive) | GI50 [13]: 58.1 µM (inactive) | GI50 [14]: > 100 µM (inactive) | GI50 [15]: > 100 µM (inactive) | GI50 [16]: > 100 µM (inactive) | GI50 [17]: > 100 µM (inactive) | GI50 [18]: > 100 µM (inactive) | GI50 [19]: > 100 µM (inactive) | GI50 [20]: > 100 µM (inactive) | GI50 [21]: > 100 µM (inactive) | GI50 [22]: > 100 µM (inactive) | GI50 [23]: > 100 µM (inactive) | GI50 [24]: > 100 µM (inactive) | GI50 [25]: > 100 µM (inactive) | GI50 [26]: > 100 µM (inactive) | GI50 [27]: > 100 µM (inactive) | GI50 [28]: > 100 µM (inactive) | GI50 [29]: > 100 µM (inactive) | GI50 [30]: > 100 µM (inactive) | GI50 [31]: > 100 µM (inactive) | GI50 [32]: > 100 µM (inactive) | GI50 [33]: > 100 µM (inactive) | GI50 [34]: > 100 µM (inactive) | GI50 [35]: > 100 µM (inactive) | GI50 [36]: > 100 µM (inactive) | GI50 [37]: > 100 µM (inactive) | GI50 [38]: > 100 µM (inactive) | GI50 [39]: > 100 µM (inactive) | GI50 [40]: > 100 µM (inactive) | GI50 [41]: > 100 µM (inactive) | GI50 [42]: > 100 µM (inactive) | GI50 [43]: > 100 µM (inactive) | GI50 [44]: > 100 µM (inactive) | GI50 [45]: > 100 µM (inactive) | GI50 [46]: > 100 µM (inactive) | GI50 [47]: > 100 µM (inactive) | GI50 [48]: > 100 µM (inactive) | GI50 [49]: > 100 µM (inactive) | GI50 [50]: > 100 µM (inactive) | GI50 [51]: > 100 µM (inactive) | GI50 [52]: > 100 µM (inactive) | GI50 [53]: > 100 µM (inactive) | GI50 [54]: > 100 µM (inactive)

C1CSCCSCSCCS1
GI50 [1]: > 100 µM (inactive) | GI50 [2]: > 100 µM (inactive) | GI50 [3]: > 100 µM | GI50 [4]: > 100 µM (inactive) | GI50 [5]: > 100 µM (inactive) | GI50 [6]: > 100 µM (inactive) | GI50 [7]: > 100 µM (inactive) | GI50 [8]: > 100 µM (inactive) | GI50 [55]: > 100 µM (inactive) | GI50 [9]: > 100 µM (inactive) | GI50 [10]: > 100 µM (inactive) | GI50 [11]: > 100 µM (inactive) | GI50 [13]: > 100 µM (inactive) | GI50 [14]: > 100 µM (inactive) | GI50 [15]: > 100 µM (inactive) | GI50 [16]: > 100 µM (inactive) | GI50 [17]: > 100 µM (inactive) | GI50 [19]: > 100 µM (inactive) | GI50 [21]: > 100 µM (inactive) | GI50 [56]: > 100 µM (inactive) | GI50 [22]: > 100 µM (inactive) | GI50 [23]: > 100 µM (inactive) | GI50 [24]: > 100 µM (inactive) | GI50 [25]: > 100 µM (inactive) | GI50 [26]: > 100 µM (inactive) | GI50 [27]: > 100 µM (inactive) | GI50 [57]: > 100 µM (inactive) | GI50 [28]: > 100 µM (inactive) | GI50 [58]: 48.3 µM (inactive) | GI50 [29]: > 100 µM (inactive) | GI50 [31]: > 100 µM (inactive) | GI50 [32]: > 100 µM (inactive) | GI50 [33]: > 100 µM (inactive) | GI50 [34]: > 100 µM (inactive) | GI50 [35]: > 100 µM (inactive) | GI50 [36]: > 100 µM (inactive) | GI50 [37]: > 100 µM (inactive) | GI50 [38]: > 100 µM (inactive) | GI50 [39]: > 100 µM (inactive) | GI50 [40]: > 100 µM (inactive) | GI50 [41]: > 100 µM (inactive) | GI50 [42]: > 100 µM (inactive) | GI50 [43]: > 100 µM (inactive) | GI50 [44]: > 100 µM (inactive) | GI50 [45]: > 100 µM (inactive) | GI50 [46]: > 100 µM (inactive) | GI50 [47]: > 100 µM (inactive) | GI50 [48]: > 100 µM (inactive) | GI50 [50]: > 100 µM (inactive) | GI50 [51]: > 100 µM (inactive) | GI50 [53]: > 100 µM (inactive)

COc1ccc(/C=C2\CCc3cc(OC)c(OC)cc3C2=O)cc1
GI50 [1]: > 10 µM (inactive) | GI50 [2]: > 10 µM (inactive) | GI50 [3]: > 10 µM | GI50 [4]: > 10 µM (inactive) | GI50 [5]: > 10 µM (inactive) | GI50 [6]: > 10 µM (inactive) | GI50 [7]: > 10 µM (inactive) | GI50 [8]: > 10 µM (inactive) | GI50 [59]: > 10 µM (inactive) | GI50 [55]: > 10 µM (inactive) | GI50 [9]: > 10 µM (inactive) | GI50 [10]: > 10 µM (inactive) | GI50 [11]: > 10 µM (inactive) | GI50 [12]: > 10 µM (inactive) | GI50 [13]: > 10 µM (inactive) | GI50 [14]: > 10 µM (inactive) | GI50 [15]: > 10 µM (inactive) | GI50 [16]: > 10 µM (inactive) | GI50 [17]: > 10 µM (inactive) | GI50 [18]: > 10 µM (inactive) | GI50 [19]: > 10 µM (inactive) | GI50 [20]: 9.25 µM (inactive) | GI50 [21]: > 10 µM (inactive) | GI50 [56]: > 10 µM (inactive) | GI50 [22]: > 10 µM (inactive) | GI50 [23]: > 10 µM (inactive) | GI50 [24]: > 10 µM (inactive) | GI50 [25]: > 10 µM (inactive) | GI50 [26]: > 10 µM (inactive) | GI50 [27]: > 10 µM (inactive) | GI50 [57]: > 10 µM (inactive) | GI50 [28]: > 10 µM (inactive) | GI50 [58]: 5.12 µM (inactive) | GI50 [29]: > 10 µM (inactive) | GI50 [30]: > 10 µM (inactive) | GI50 [31]: > 10 µM (inactive) | GI50 [32]: > 10 µM (inactive) | GI50 [34]: > 10 µM (inactive) | GI50 [35]: > 10 µM (inactive) | GI50 [36]: > 10 µM (inactive) | GI50 [37]: > 10 µM (inactive) | GI50 [38]: > 10 µM (inactive) | GI50 [39]: > 10 µM (inactive) | GI50 [40]: > 10 µM (inactive) | GI50 [41]: > 10 µM (inactive) | GI50 [42]: > 10 µM (inactive) | GI50 [43]: > 10 µM (inactive) | GI50 [45]: > 10 µM (inactive) | GI50 [46]: > 10 µM (inactive) | GI50 [47]: > 10 µM (inactive) | GI50 [48]: > 10 µM (inactive) | GI50 [49]: > 10 µM (inactive) | GI50 [50]: > 10 µM (inactive) | GI50 [51]: > 10 µM (inactive) | GI50 [52]: > 10 µM (inactive) | GI50 [53]: > 10 µM (inactive) | GI50 [54]: > 10 µM (inactive)

CC(CNC(=O)c1ccccc1)(CNC(=O)c1ccccc1)[N+](=O)[O-]
GI50 [1]: > 100 µM (inactive) | GI50 [2]: > 100 µM (inactive) | GI50 [3]: > 100 µM | GI50 [4]: > 100 µM (inactive) | GI50 [5]: > 100 µM (inactive) | GI50 [6]: > 100 µM (inactive) | GI50 [7]: > 100 µM (inactive) | GI50 [8]: > 100 µM (inactive) | GI50 [59]: > 100 µM (inactive) | GI50 [55]: > 100 µM (inactive) | GI50 [9]: > 100 µM (inactive) | GI50 [10]: > 100 µM (inactive) | GI50 [11]: > 100 µM (inactive) | GI50 [12]: > 100 µM (inactive) | GI50 [13]: > 100 µM (inactive) | GI50 [14]: > 100 µM (inactive) | GI50 [15]: > 100 µM (inactive) | GI50 [16]: > 100 µM (inactive) | GI50 [17]: > 100 µM (inactive) | GI50 [18]: > 100 µM (inactive) | GI50 [19]: > 100 µM (inactive) | GI50 [20]: > 100 µM (inactive) | GI50 [21]: > 100 µM (inactive) | GI50 [23]: > 100 µM (inactive) | GI50 [24]: > 100 µM (inactive) | GI50 [25]: > 100 µM (inactive) | GI50 [26]: > 100 µM (inactive) | GI50 [27]: > 100 µM (inactive) | GI50 [57]: > 100 µM (inactive) | GI50 [28]: > 100 µM (inactive) | GI50 [58]: 51.3 µM (inactive) | GI50 [29]: > 100 µM (inactive) | GI50 [30]: > 100 µM (inactive) | GI50 [32]: > 100 µM (inactive) | GI50 [33]: 67.1 µM (inactive) | GI50 [34]: 7.05 µM (inactive) | GI50 [35]: > 100 µM (inactive) | GI50 [36]: > 100 µM (inactive) | GI50 [37]: > 100 µM (inactive) | GI50 [39]: 23.8 µM (inactive) | GI50 [40]: > 100 µM (inactive) | GI50 [41]: > 100 µM (inactive) | GI50 [43]: > 100 µM (inactive) | GI50 [45]: > 100 µM (inactive) | GI50 [46]: > 100 µM (inactive) | GI50 [47]: > 100 µM (inactive) | GI50 [48]: > 100 µM (inactive) | GI50 [50]: > 100 µM (inactive) | GI50 [52]: > 100 µM (inactive) | GI50 [53]: > 100 µM (inactive) | GI50 [54]: > 100 µM (inactive)
